Test results reported in the CheMixHub viscosity set.
“And” between values parts separate entries of the source, which are not always exact repeats. Equal entries are not always repeated.

Test: xn = mol fraction of the nth substance listed

CCOCCOCCOCC + CCOC(=O)OCC
viscosity [mPa·s], 101.33 kPa
Conditions | 298.15 K | 308.15 K | 318.15 K
x1 = 0.0221 | 0.763 | 0.667 | 0.584
x1 = 0.0409 | 0.776 | 0.675 | 0.592
x1 = 0.0945 | 0.812 | 0.699 | 0.609
x1 = 0.1858 | 0.863 | 0.741 | 0.643
x1 = 0.2214 | 0.89 | 0.758 | 0.656
x1 = 0.2775 | 0.923 | 0.784 | 0.677
x1 = 0.3669 | 0.972 | 0.822 | 0.707
x1 = 0.4971 | 1.041 | 0.879 | 0.747
x1 = 0.5997 | 1.092 | 0.917 | 0.775
x1 = 0.6836 | 1.133 | 0.947 | 0.801
x1 = 0.7747 | 1.17 | 0.979 | 0.825
x1 = 0.8683 | 1.214 | 1.009 | 0.849
x1 = 0.9296 | 1.239 | 1.027 | 0.862
x1 = 0.9694 | 1.255 | 1.04 | 0.871

CNC=O + CC(=O)c1ccccc1
viscosity [mPa·s], 101 kPa
Conditions | x1 = 0.0867 | x1 = 0.176 | x1 = 0.268 | x1 = 0.3629 | x1 = 0.4607 | x1 = 0.5617 | x1 = 0.6659 | x1 = 0.7736 | x1 = 0.8849
303.15 K | 1.522 | 1.532 | 1.541 | 1.549 | 1.556 | 1.564 | 1.571 | 1.578 | 1.583
308.15 K | 1.423 | 1.43 | 1.436 | 1.442 | 1.447 | 1.452 | 1.456 | 1.46 | 1.462
313.15 K | 1.279 | 1.289 | 1.299 | 1.307 | 1.316 | 1.325 | 1.333 | 1.34 | 1.347
318.15 K | 1.133 | 1.148 | 1.162 | 1.176 | 1.19 | 1.204 | 1.218 | 1.231 | 1.243

CCOCCOCCOCC + COC(=O)OC
viscosity [mPa·s], 101.33 kPa
Conditions | 298.15 K | 308.15 K | 318.15 K
x1 = 0.0109 | 0.604 | 0.532 | 0.48
x1 = 0.0541 | 0.641 | 0.563 | 0.502
x1 = 0.0935 | 0.677 | 0.593 | 0.523
x1 = 0.1383 | 0.718 | 0.624 | 0.546
x1 = 0.1877 | 0.76 | 0.654 | 0.571
x1 = 0.2422 | 0.808 | 0.689 | 0.604
x1 = 0.3409 | 0.886 | 0.752 | 0.651
x1 = 0.4435 | 0.959 | 0.811 | 0.697
x1 = 0.5274 | 1.021 | 0.855 | 0.727
x1 = 0.6085 | 1.072 | 0.894 | 0.761
x1 = 0.7154 | 1.136 | 0.942 | 0.798
x1 = 0.8183 | 1.189 | 0.986 | 0.831
x1 = 0.9068 | 1.229 | 1.019 | 0.857
x1 = 0.9643 | 1.258 | 1.037 | 0.872

CCCCOCCO + OCCOCCO
101 kPa
Conditions | viscosity [mPa·s]
293.15 K, x1 = 0.0527 | 34.87
293.15 K, x1 = 0.1006 | 31.53
293.15 K, x1 = 0.1978 | 25.56
293.15 K, x1 = 0.2838 | 21.2
293.15 K, x1 = 0.3994 | 16.51
293.15 K, x1 = 0.4508 | 14.78
293.15 K, x1 = 0.5016 | 13.23
293.15 K, x1 = 0.5487 | 11.92
293.15 K, x1 = 0.5792 | 11.12
293.15 K, x1 = 0.6735 | 8.899
293.15 K, x1 = 0.7975 | 6.435
293.15 K, x1 = 0.8946 | 4.816
293.15 K, x1 = 0.9556 | 3.894
298.15 K, x1 = 0.0486 | 27.11
298.15 K, x1 = 0.0983 | 24.47
298.15 K, x1 = 0.2015 | 19.76
298.15 K, x1 = 0.2993 | 16.07
298.15 K, x1 = 0.3999 | 12.89
298.15 K, x1 = 0.4504 | 11.5
298.15 K, x1 = 0.4981 | 10.3
298.15 K, x1 = 0.5447 | 9.244
298.15 K, x1 = 0.5844 | 8.422
298.15 K, x1 = 0.6781 | 6.756
298.15 K, x1 = 0.7974 | 5.096
298.15 K, x1 = 0.8989 | 3.946
298.15 K, x1 = 0.9494 | 3.392
303.15 K, x1 = 0.0465 | 19.89
303.15 K, x1 = 0.0998 | 17.79
303.15 K, x1 = 0.2008 | 14.36
303.15 K, x1 = 0.2979 | 11.66
303.15 K, x1 = 0.4002 | 9.382
303.15 K, x1 = 0.4487 | 8.472
303.15 K, x1 = 0.491 | 7.751
303.15 K, x1 = 0.5513 | 6.832
303.15 K, x1 = 0.6 | 6.167
303.15 K, x1 = 0.7032 | 4.949
303.15 K, x1 = 0.8025 | 3.971
303.15 K, x1 = 0.8829 | 3.29
303.15 K, x1 = 0.9536 | 2.765

CCCCCCCCN(CCCCCCCC)CCCCCCCC + Cc1ccccc1
298.15 K, 101.33 kPa
Conditions | viscosity [mPa·s]
x1 = 0.015 | 0.595
x1 = 0.033 | 0.646
x1 = 0.075 | 0.775
x1 = 0.231 | 1.405

O=C(OCc1ccccc1)c1ccccc1 + CCOC(C)=O
298.15 K, 101 kPa
Conditions | viscosity [mPa·s]
x2 = 0.0784 | 7.003
x2 = 0.1426 | 5.938
x2 = 0.2347 | 4.711
x2 = 0.3002 | 3.881
x2 = 0.4001 | 3.047
x2 = 0.5 | 2.299
x2 = 0.5863 | 1.789
x2 = 0.6973 | 1.275
x2 = 0.799 | 0.9116
x2 = 0.898 | 0.6406

CCCCOCCO + CCCCCCCCCCO
101 kPa
Conditions | viscosity [mPa·s]
303.15 K, x1 = 0.1024 | 8.155
308.15 K, x1 = 0.7009 | 3.195

CC(C)CC(C)C + CCCCCCCCCCCCCCCC
101 kPa, x1 = 0.5
Conditions | viscosity [mPa·s]
298 K | 1.314
318 K | 0.9631

CCCCOCCO + Cc1cccc(C)c1
viscosity [mPa·s], 101 kPa
Conditions | 298.15 K | 308.15 K
x1 = 0.056 | 0.625 | 0.534
x1 = 0.152 | 0.711 | 0.602
x1 = 0.2496 | 0.813 | 0.686
x1 = 0.3506 | 0.941 | 0.786
x1 = 0.4512 | 1.095 | 0.908
x1 = 0.5022 | 1.185 | 0.979
x1 = 0.5529 | 1.284 | 1.056
x1 = 0.6487 | 1.501 | 1.225
x1 = 0.7505 | 1.781 | 1.442
x1 = 0.8511 | 2.122 | 1.704
x1 = 0.9549 | 2.56 | 2.037

c1ccc2c(c1)CCCC2 + COC(C)(C)C
303.15 K, 101 kPa
Conditions | viscosity [mPa·s]
x2 = 0.1289 | 1.534
x2 = 0.1851 | 1.432
x2 = 0.2839 | 1.253
x2 = 0.3506 | 1.136
x2 = 0.4458 | 0.983
x2 = 0.5017 | 0.903
x2 = 0.6257 | 0.737
x2 = 0.7392 | 0.606
x2 = 0.8539 | 0.486
x2 = 0.9246 | 0.37

CCOCCOCCOCC + CCCO
298.15 K, 101.33 kPa
Conditions | viscosity [mPa·s]
x1 = 0.007 | 1.918
x1 = 0.0129 | 1.894
x1 = 0.0249 | 1.844
x1 = 0.0395 | 1.788
x1 = 0.0516 | 1.747
x1 = 0.0695 | 1.687
x1 = 0.097 | 1.611
x1 = 0.1283 | 1.541
x1 = 0.1736 | 1.458
x1 = 0.2229 | 1.396
x1 = 0.2672 | 1.354
x1 = 0.3115 | 1.32
x1 = 0.3638 | 1.291
x1 = 0.4026 | 1.28
x1 = 0.4592 | 1.259
x1 = 0.5239 | 1.243
x1 = 0.5856 | 1.231
x1 = 0.6363 | 1.227
x1 = 0.6742 | 1.225
x1 = 0.7119 | 1.224
x1 = 0.7662 | 1.222
x1 = 0.8311 | 1.226
x1 = 0.8815 | 1.231
x1 = 0.9142 | 1.235
x1 = 0.9468 | 1.239
x1 = 0.9756 | 1.24

CCOC(=O)CCl + Clc1ccccc1
viscosity [mPa·s], 101.3 kPa
Conditions | x1 = 0.1064 | x1 = 0.2055 | x1 = 0.3 | x1 = 0.3972 | x1 = 0.5005 | x1 = 0.5976 | x1 = 0.6985 | x1 = 0.7953 | x1 = 0.8963
298.15 K | 0.799 | 0.828 | 0.858 | 0.889 | 0.925 | 0.959 | 0.996 | 1.031 | 1.064
303.15 K | 0.752 | 0.778 | 0.804 | 0.834 | 0.865 | 0.895 | 0.927 | 0.959 | 0.986
308.15 K | 0.706 | 0.728 | 0.751 | 0.776 | 0.804 | 0.831 | 0.858 | 0.885 | 0.91

c1ccc2c(c1)CCCC2 + CCCCCCCCO
viscosity [mPa·s], 100 kPa
Conditions | x1 = 0.0993 | x1 = 0.1995 | x1 = 0.2994 | x1 = 0.3997 | x1 = 0.4996 | x1 = 0.5996 | x1 = 0.6996 | x1 = 0.7994 | x1 = 0.8994
293.15 K | 7.58 | 6.37 | 5.34 | 4.49 | 3.8 | 3.25 | 2.83 | 2.53 | 2.31
298.15 K | 6.37 | 5.38 | 4.55 | 3.86 | 3.3 | 2.85 | 2.51 | 2.25 | 2.09
303.15 K | 5.39 | 4.59 | 3.92 | 3.35 | 2.89 | 2.52 | 2.22 | 2.01 | 1.88
308.15 K | 4.61 | 3.95 | 3.39 | 2.92 | 2.54 | 2.23 | 1.99 | 1.81 | 1.7
313.15 K | 3.95 | 3.42 | 2.97 | 2.58 | 2.26 | 2 | 1.79 | 1.64 | 1.55
318.15 K | 3.42 | 2.99 | 2.61 | 2.29 | 2.02 | 1.8 | 1.63 | 1.51 | 1.43
323.15 K | 2.96 | 2.61 | 2.3 | 2.03 | 1.81 | 1.62 | 1.48 | 1.37 | 1.32

c1ccc2c(c1)CCCC2 + Cc1ccccc1
101.3 kPa
Conditions | viscosity
298 K, x2 = 0.2 | 1.55 mPa·s
298.1 K, x2 = 0.4 | 1.133 mPa·s
298.2 K, x2 = 0.6 | 0.9208 mPa·s
298.2 K, x2 = 0.8 | 0.7036 mPa·s
303.2 K, x2 = 0.5 | 0.9625 mPa·s
308.2 K, x2 = 0.4 | 0.9772 mPa·s
308.2 K, x2 = 0.6 | 0.8034 mPa·s
308.2 K, x2 = 0.8 | 0.6177 mPa·s and 0.6155 mPa·s
313.1 K, x2 = 0.2 | 1.209 mPa·s
313.1 K, x2 = 0.5 | 0.8373 mPa·s
318.1 K, x2 = 0.4 | 0.8532 mPa·s
318.2 K, x2 = 0.6 | 0.7034 mPa·s
318.2 K, x2 = 0.8 | 0.553 mPa·s
323.1 K, x2 = 0.5 | 0.7376 mPa·s
